What all share (assay type): cell-based
The test system of experiment [1] is A549. Kind of experiment: Bulk cancer cells, Cell Titer-Glo 72 hours (Test Example 2). The settings on record: Homo sapiens. How it is done:
(§1) Tubes of 3× drug (60 uM in 500 uL complete media) were prepared from 5 mM stock solutions in DMSO. […] To treat cells, 50 uL of drug from the dilution plate was removed and added to the cell plates. […] Cells were harvested 72 hours after drug addition using Cell Titer-Glo (Promega) and luminescence measured on a plate reader.
For orientation: Cellular ATP, detected with luciferase, serves as a proxy for viable cell number.

Experiment [2] concerns FaDu. The description is as above. The following applies: Homo sapiens. The protocol: as §1
Experiment [3] deals with FaDu CSC. In words: Cancer stem cells, Cell Titer-Glo 72 hours (Test Example 3). The following applies: Homo sapiens, FaDu, 72 h.
Experiment [4] has as its system A549 CSC. Described as above. The following applies: Homo sapiens.
For experiment [5], the system named is ACHN CSC. The description is as above.
The subject of experiment [6] is ACHN. Kind of experiment: Bulk cancer cells, Cell Titer-Glo 72 hours (Test Example 2). How it is done: as §1

What is called pIC50 is −log10 of the IC50, conventionally taken in molar units. Read a low pIC50 as a large IC50.

pIC50: −log10 of the molar value. Like-named read-outs stand apart in the source and are kept apart here.

In the case of `CCN(CC)CCNC(=O)c1c(C)[nH]c(/C=C2\C(=O)Nc3cc(-c4cnc5ccccc5c4)ccc32)c1C` [Example 257], the negative-log IC50 (pIC50) in experiment [1] is 4.80; in experiment [2], 4.89; in experiment [3], 5.55; in experiment [4], 4.93; in experiment [5] (Homo sapiens, ACHN, 72 h) it was 5.97.
As to `CCN(CC)CCNC(=O)c1c(C)[nH]c(/C=C2\C(=O)Nc3ccc(-c4cscc4C)cc32)c1C` [Example 206], the pIC50 was 5.70 in experiment [1]; 5.57 in experiment [6] (Homo sapiens, ACHN, 72 h); 5.43 in experiment [2]; 5.04 in experiment [3]; 5.40 in experiment [4]; 6.32 in experiment [5] (Homo sapiens, ACHN, 72 h).
On to `CCN(CC)CCNC(=O)c1c(C)[nH]c(/C=C2\C(=O)Nc3cc(-c4ccc5ccccc5n4)ccc32)c1C` [Example 253], for which the negative-log IC50 (pIC50) was 4.79 in experiment [1]; 4.78 in experiment [2]; 5.29 in experiment [3]; 5.18 in experiment [4]; 5.87 in experiment [5] (Homo sapiens, ACHN, 72 h).
In the case of `Cc1[nH]c(/C=C2\C(=O)Nc3ccc(-c4ccc(-c5ccccc5)s4)cc32)c(C)c1C(=O)N1CCOCC1` [Example 11], the negative-log IC50 (pIC50) is 4.99 in experiment [1]; 4.89 in experiment [6] (Homo sapiens, ACHN, 72 h); 4.68 in experiment [2]; 5.61 in experiment [3]; 4.96 in experiment [4]; 6.64 in experiment [5] (Homo sapiens, ACHN, 72 h).
For `CCN(CC)CCNC(=O)CCc1c(C)[nH]c(/C=C2\C(=O)Nc3ccc(-c4csc(-c5ccccc5)n4)cc32)c1C` [Example 149], the pIC50 in experiment [1] is 5.95; in experiment [6] (Homo sapiens, ACHN, 72 h), 5.61; in experiment [2], 5.41; in experiment [3], 5.45; in experiment [4], 5.06; in experiment [5] (Homo sapiens, ACHN, 72 h), 5.37.
As for `Cc1[nH]c(/C=C2\C(=O)Nc3ccc(-c4csc(-c5ccccc5)n4)cc32)c(C)c1S(=O)(=O)N1CCCC1` [Example 146], the negative-log IC50 (pIC50) in experiment [1] is 5.54; in experiment [6] (Homo sapiens, ACHN, 72 h) it was 4.90; in experiment [2], 5.26; in experiment [3], 5.18; in experiment [5] (Homo sapiens, ACHN, 72 h) it was 5.30.
With `CCN(CC)CCNC(=O)CCc1c(C)[nH]c(/C=C2\C(=O)Nc3ccc(-c4csc(-c5ccncc5)n4)cc32)c1C` [Example 167], the negative logarithm of the IC50 (pIC50) was 5.00 in experiment [1]; 5.13 in experiment [6] (Homo sapiens, ACHN, 72 h); 4.55 in experiment [2]; 5.34 in experiment [3]; 4.45 in experiment [4]; 5.91 in experiment [5] (Homo sapiens, ACHN, 72 h).
With `CCN(CC)CCNC(=O)c1c(C)[nH]c(/C=C2\C(=O)Nc3ccc(-c4cccc(C#N)c4C)cc32)c1C` [Example 205], the negative-log IC50 (pIC50) in experiment [1] is 5.55; in experiment [6] (Homo sapiens, ACHN, 72 h), 5.28; in experiment [2], 5.37; in experiment [3], 5.33; in experiment [4], 5.35; in experiment [5] (Homo sapiens, ACHN, 72 h) it was 6.24.
For the compound `CCN(CC)CCNC(=O)c1c(C)[nH]c(/C=C2\C(=O)Nc3ccc(-c4csc(-n5cccn5)n4)cc32)c1C` [Example 195], the negative-log IC50 (pIC50) in experiment [1] is 5.43; in experiment [6] (Homo sapiens, ACHN, 72 h) it was 5.10; in experiment [2], 5.33; in experiment [3], 5.29; in experiment [4], 5.18; in experiment [5] (Homo sapiens, ACHN, 72 h), 6.21.
For the compound `CCN(CC)CCNC(=O)c1c(C)[nH]c(/C=C2\C(=O)Nc3cc(-c4ccc(-c5ccccc5)nc4)ccc32)c1C` [Example 249], the pIC50 in experiment [1] is 4.83; in experiment [3] it was 5.95; in experiment [4] it was 5.44; in experiment [5] (Homo sapiens, ACHN, 72 h) it was 6.68.
Take `Cc1ccc(-c2nc(-c3ccc4c(c3)/C(=C/c3[nH]c(C)c(C(=O)NCCN5CCCC5)c3C)C(=O)N4)cs2)cc1` [Example 103]: the pIC50 in experiment [1] was 5.22; in experiment [6] (Homo sapiens, ACHN, 72 h), 5.63; in experiment [2] it was 5.37; in experiment [3] it was 6.51; in experiment [4] it was 4.91; in experiment [5] (Homo sapiens, ACHN, 72 h), 6.85.
Turning to `CCN(CC)CCNC(=O)c1c(C)[nH]c(/C=C2\C(=O)Nc3ccc(-c4cnc5ccccn45)cc32)c1C` [Example 192], the negative-log IC50 (pIC50) in experiment [1] was 5.23; in experiment [6] (Homo sapiens, ACHN, 72 h), 5.33; in experiment [2] it was 5.33; in experiment [3] it was 4.75; in experiment [4], 4.76; in experiment [5] (Homo sapiens, ACHN, 72 h), 5.46.
On to `Cc1[nH]c(/C=C2\C(=O)Nc3ccc(-c4csc(-c5ccccc5)n4)cc32)c(C)c1S(=O)(=O)N1CCOCC1` [Example 147], for which the negative logarithm of the IC50 (pIC50) is 5.14 in experiment [1]; 4.97 in experiment [6] (Homo sapiens, ACHN, 72 h); 4.94 in experiment [2]; 6.68 in experiment [3]; 5.43 in experiment [4]; 6.25 in experiment [5] (Homo sapiens, ACHN, 72 h).
Consider `O=C1Nc2ccc(-c3csc(-c4ccncc4)n3)cc2/C1=C/c1ncc[nH]1` [Example 153], for which the negative-log IC50 (pIC50) in experiment [1] was 4.83; in experiment [6] (Homo sapiens, ACHN, 72 h), 6.54; in experiment [2] it was 5.47; in experiment [4] it was 5.59; in experiment [5] (Homo sapiens, ACHN, 72 h), 5.04.
With `O=C1Nc2ccc(-c3csc(-c4ccccc4)n3)cc2/C1=C/c1cc2c([nH]1)CCCC2` [Example 155], the negative-log IC50 (pIC50) is 4.46 in experiment [6] (Homo sapiens, ACHN, 72 h); 4.69 in experiment [2]; 5.39 in experiment [3]; 5.85 in experiment [4]; 5.60 in experiment [5] (Homo sapiens, ACHN, 72 h).
With `COC(=O)c1c(C)[nH]c(/C=C2\C(=O)Nc3ccc(-c4csc(-c5ccncc5)n4)cc32)c1C` [Example 145], the pIC50 is 5.02 in experiment [1]; 4.90 in experiment [6] (Homo sapiens, ACHN, 72 h); 4.73 in experiment [2]; 5.17 in experiment [3]; 5.32 in experiment [4]; 5.21 in experiment [5] (Homo sapiens, ACHN, 72 h).
With `CCN(CC)CCNC(=O)c1c(C)[nH]c(/C=C2\C(=O)Nc3ccc(-c4ncccn4)cc32)c1C` [Example 182], the pIC50 in experiment [1] is 4.81; in experiment [6] (Homo sapiens, ACHN, 72 h), 5.46; in experiment [2], 5.22; in experiment [3], 7.05; in experiment [4], 4.74; in experiment [5] (Homo sapiens, ACHN, 72 h), 5.94.
Regarding `CCN(CC)CCNC(=O)c1c(C)[nH]c(/C=C2\C(=O)Nc3ccc(-c4cnc5ccccc5c4)cc32)c1C` [Example 204], the negative logarithm of the IC50 (pIC50) was 5.41 in experiment [1]; 5.19 in experiment [6] (Homo sapiens, ACHN, 72 h); 5.34 in experiment [2]; 5.26 in experiment [3]; 5.17 in experiment [4]; 6.21 in experiment [5] (Homo sapiens, ACHN, 72 h).
Consider `O=C1Nc2ccc(-c3csc(-c4ccncc4)n3)cc2/C1=C/c1cnc[nH]1` [Example 152], for which the pIC50 is 5.04 in experiment [1]; 5.44 in experiment [6] (Homo sapiens, ACHN, 72 h); 5.78 in experiment [2]; 4.66 in experiment [3]; 5.14 in experiment [4]; 4.54 in experiment [5] (Homo sapiens, ACHN, 72 h).
As for `CCN(CC)CCNC(=O)c1c(C)[nH]c(/C=C2\C(=O)Nc3cc(-c4nccc5ccccc45)ccc32)c1C` [Example 255], the pIC50 is 5.15 in experiment [1]; 5.19 in experiment [6] (Homo sapiens, ACHN, 72 h); 5.04 in experiment [2]; 4.61 in experiment [3]; 5.72 in experiment [5] (Homo sapiens, ACHN, 72 h).
With `CCN(CC)CCNC(=O)c1c(C)[nH]c(/C=C2\C(=O)Nc3ccc(-c4csc(-c5ccc(C)cc5)n4)cc32)c1C` [Example 102], the pIC50 in experiment [3] was 5.47; in experiment [4], 4.98; in experiment [5] (Homo sapiens, ACHN, 72 h) it was 6.16.
For the compound `CCN(CC)CCNC(=O)c1c(C)[nH]c(/C=C2\C(=O)Nc3ccc(-c4ccc5ccccc5n4)cc32)c1C` [Example 186], the pIC50 in experiment [1] is 5.74; in experiment [6] (Homo sapiens, ACHN, 72 h) it was 5.56; in experiment [2], 6.04; in experiment [4], 5.82; in experiment [5] (Homo sapiens, ACHN, 72 h), 6.48.
For `CCN(CC)CCNC(=O)c1c(C)[nH]c(/C=C2\C(=O)Nc3ccc(-c4csc(C(=O)O)c4)cc32)c1C` [Example 202], the pIC50 in experiment [1] was 5.11; in experiment [6] (Homo sapiens, ACHN, 72 h), 5.11; in experiment [3] it was 4.85; in experiment [4], 4.85; in experiment [5] (Homo sapiens, ACHN, 72 h) it was 5.89.
As to `Cc1cc(C)c(/C=C2\C(=O)Nc3ccc(-c4ncccc4C)cc32)[nH]1` [Example 211], the pIC50 in experiment [1] is 4.65; in experiment [6] (Homo sapiens, ACHN, 72 h) it was 5.10; in experiment [3] it was 4.39; in experiment [5] (Homo sapiens, ACHN, 72 h) it was 8.00.
Take `Cc1cc(C)c(/C=C2\C(=O)Nc3cc(-c4cnc5ccccc5n4)ccc32)[nH]1` [Example 242]: the negative-log IC50 (pIC50) in experiment [1] was 4.74; in experiment [3], 5.06; in experiment [4], 5.23; in experiment [5] (Homo sapiens, ACHN, 72 h), 5.60.
In the case of `CCN(CC)CCNC(=O)c1c(C)[nH]c(/C=C2\C(=O)Nc3ccc(-c4n[nH]c5c(N)cccc45)cc32)c1C` [Example 268], the pIC50 in experiment [1] is 4.93; in experiment [6] (Homo sapiens, ACHN, 72 h), 4.92; in experiment [2], 5.15; in experiment [3] it was 4.55; in experiment [5] (Homo sapiens, ACHN, 72 h), 4.51.
`CCN(CC)CCNC(=O)c1c(C)[nH]c(/C=C2\C(=O)Nc3cc(-c4ccc(-c5ccccc5)cn4)ccc32)c1C` [Example 256]: the negative-log IC50 (pIC50) in experiment [2] is 4.70; in experiment [3], 5.93; in experiment [4], 5.31; in experiment [5] (Homo sapiens, ACHN, 72 h), 5.54.
The like results for `CCN(CC)CCNC(=O)c1c(C)[nH]c(/C=C2\C(=O)Nc3cc(-c4csc(-c5ccccc5)n4)ccc32)c1C` [Example 7] were, in that order, 5.74, 6.22, 5.43 and 6.72.
As to `Cc1ccc(-c2ccc3c(c2)/C(=C/c2[nH]c(C)cc2C)C(=O)N3)cn1` [Example 228], the figures for the pIC50 in experiment [6], in experiment [4] and in experiment [5] were 4.65, 4.59 and 5.47, respectively.
Regarding `Cc1ccc(-c2ccc3c(c2)NC(=O)/C3=C\c2[nH]c(C)cc2C)cn1` [Example 244], the pIC50 in experiment [6] (Homo sapiens, ACHN, 72 h) is 4.66; in experiment [3], 5.44; in experiment [4], 4.63; in experiment [5] (Homo sapiens, ACHN, 72 h) it was 5.34.
